What all share (type): biochemical
In assay [1] the target is T1, human NTPDase3 (Homo sapiens, UniProt O75355).
T1 construct: expressed in transfected cells; host or cells: COS-7 cells (membrane preparation)
T1 sequence (O75355 1-529): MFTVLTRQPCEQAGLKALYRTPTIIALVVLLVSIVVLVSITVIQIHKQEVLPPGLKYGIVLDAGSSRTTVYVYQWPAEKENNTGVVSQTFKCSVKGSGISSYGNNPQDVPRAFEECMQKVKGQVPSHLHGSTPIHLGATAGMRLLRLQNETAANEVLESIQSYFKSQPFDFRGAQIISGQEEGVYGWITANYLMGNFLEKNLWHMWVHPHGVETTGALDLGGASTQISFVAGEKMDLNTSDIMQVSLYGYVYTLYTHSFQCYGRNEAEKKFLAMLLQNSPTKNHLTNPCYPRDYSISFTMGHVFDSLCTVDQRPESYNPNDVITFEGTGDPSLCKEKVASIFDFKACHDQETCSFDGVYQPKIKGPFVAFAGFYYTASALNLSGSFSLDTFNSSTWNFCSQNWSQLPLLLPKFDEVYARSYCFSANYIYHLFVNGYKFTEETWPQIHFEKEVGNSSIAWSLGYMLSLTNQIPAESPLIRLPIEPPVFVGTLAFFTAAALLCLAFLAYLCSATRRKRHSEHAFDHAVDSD
As to the kind of experiment: Malachite green assay, human NTPDase3. The note with it: 100 µM ATP, COS-7 membrane preparation; for IC50: read-out: IC50 ± SEM, NTPDase3; for inhibition at 2 µM: 2 μM compound, read-out: % inhibition at 2 μM concentration, NTPDase3. Here is the method: (§1) Membrane preparations expressing human NTPDase1, -2, -3, or -8, respectively, were obtained as previously described ([Sévigny et al., 1997]; [Cogan et al., 1999]; [Kukulski et al., 2005]; [Lecka et al., 2013]; [Lee et al., 2018]). Enzyme inhibition assays were performed using the malachite green assay in analogy to published procedures with some modifications ([Dou et al., 2018]). The reaction buffer contained 10 mM HEPES, 2 mM CaCl2, and 1 mM MgCl2 (pH 7.4) in a final volume of 50 μL in transparent 96-well half-area plates. The compounds were initially tested at a final concentration of 2 µM using a COS-7-cell membrane preparation expressing the appropriate NTPDase isoenzyme (protein amount: 143 ng for NTPDase1, 175 ng for NTPDase2, 152 ng for NTPDase3, and 175 ng for NTPDase8). Preincubated of the enzyme preparations was perfomred at 37°C in the presence or absence of test compounds with gentle shaking (Eppendorf Thermomixer comfort at 500 rpm) for 5 min. […] ([Kukulski et al., 2005]). After 15 min of incubation at 37°C with gentle shaking, the reaction was stopped by the addition of the detection reagents (20 µL malachite green solution, 0.6 mM, and 30 µL of ammonium molybdate solution, 20 mM, in 1.5 M sulfuric acid). The released inorganic phosphate was quantified after 20 min of gentle shaking at 25°C by measuring the absorption of the malachite green-phosphomolybdate complex at 600 nm using a BMG PheraStar FS plate reader (BMG Labtech GmbH, Ortenberg, Germany). The corrected absorption was calculated by subtracting the absorption of the negative control samples, which were incubated with previously denatured enzyme (90°C, 15 min). Full concentration-inhibition curves were determined with inhibitor concentrations ranging from 0.03 to 30 µM in the presence of 2% DMSO. Inhibition-type experiments were performed with 25, 50, 100, 150 and 200 µM ATP as substrate for NTPDase2 in the presence of inhibitor 20 (0, 0.25, 0.5, and 1 µM) and 25, 50, 100 and 150 µM ATP substrate for NTPDase3 and compound 42 (0.25, 0.5, and 1 µM). For all of the presented data, at least three independent experiments were performed, and IC50 values were calculated by GraphPad Prism 8 software.
(§2) Inhibition of human NTPDases was performed using the malachite green assay, which was established on a robotic system (Z’ factors > 0.70) ([Baykov et al., 1988]; [Fiene et al., 2015]). The malachite green assay enables the detection of the phosphate produced by the enzymatic hydrolysis of nucleotides. A fixed substrate concentration of 50 µM ATP for NTPDase1 and 100 µM for NTPDase2, -3, and -8 was employed. Test compounds were initially screened at a concentration of 2 μM. […] A total of 48 synthesized anthraquinone derivatives including 14 new compounds not previously described in the literature were evaluated for their inhibitory activity at human NTPDase1, -2, -3, and -8 (for results see Table 1).

Assay [2] addresses T2, human NTPDase8 (Homo sapiens, UniProt Q5MY95).
T2 construct: expressed in transfected cells; host or cells: COS-7 cells (membrane preparation)
T2 sequence (Q5MY95 1-495): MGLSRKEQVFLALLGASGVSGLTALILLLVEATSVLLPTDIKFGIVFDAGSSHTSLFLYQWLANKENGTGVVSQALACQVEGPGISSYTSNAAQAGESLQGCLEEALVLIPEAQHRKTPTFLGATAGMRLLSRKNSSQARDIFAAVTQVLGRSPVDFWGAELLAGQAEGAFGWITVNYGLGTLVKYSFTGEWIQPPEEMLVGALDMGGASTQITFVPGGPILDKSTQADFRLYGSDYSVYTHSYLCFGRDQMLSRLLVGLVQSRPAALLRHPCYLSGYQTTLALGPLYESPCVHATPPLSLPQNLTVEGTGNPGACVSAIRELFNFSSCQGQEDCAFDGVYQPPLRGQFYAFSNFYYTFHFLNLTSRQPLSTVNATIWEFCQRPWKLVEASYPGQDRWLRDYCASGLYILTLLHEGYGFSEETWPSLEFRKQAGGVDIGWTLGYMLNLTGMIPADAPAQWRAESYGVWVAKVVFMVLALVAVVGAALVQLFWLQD
As to the kind of experiment: Malachite green assay, human NTPDase8. The note with it: for inhibition at 2 µM: read-out: % inhibition at 2 μM concentration, NTPDase8. Here is the method:
as §1, §2

Assay [3] has as its target T3, human NTPDase1 (Homo sapiens, UniProt P49961).
T3 construct: expressed in transfected cells; host or cells: COS-7 cells (membrane preparation)
T3 sequence (P49961 1-510): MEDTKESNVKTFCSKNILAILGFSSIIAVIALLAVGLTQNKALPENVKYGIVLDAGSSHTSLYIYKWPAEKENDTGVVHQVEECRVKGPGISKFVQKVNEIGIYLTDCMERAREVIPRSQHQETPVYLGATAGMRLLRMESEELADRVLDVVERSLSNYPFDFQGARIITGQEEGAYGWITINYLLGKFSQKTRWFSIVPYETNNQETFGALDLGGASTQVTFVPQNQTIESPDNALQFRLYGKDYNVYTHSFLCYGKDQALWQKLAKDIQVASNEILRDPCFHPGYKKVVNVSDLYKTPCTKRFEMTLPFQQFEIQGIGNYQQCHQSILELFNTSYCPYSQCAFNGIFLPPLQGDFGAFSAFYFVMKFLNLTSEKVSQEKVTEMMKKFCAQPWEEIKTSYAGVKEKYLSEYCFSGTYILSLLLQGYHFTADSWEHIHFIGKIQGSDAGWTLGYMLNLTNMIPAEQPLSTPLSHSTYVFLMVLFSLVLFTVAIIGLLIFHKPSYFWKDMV
As to the kind of experiment: Malachite green assay, human NTPDase1. The note with it: 2 μM compound, 50 µM ATP, COS-7 membrane preparation; for inhibition at 2 µM: read-out: % inhibition at 2 μM concentration, NTPDase1. As for the experimental part: as §1, §2

Assay [4] has as its target T4, human NTPDase2 (Homo sapiens, UniProt Q9Y5L3).
T4 construct: expressed in transfected cells; host or cells: COS-7 cells (membrane preparation)
T4 sequence (Q9Y5L3 1-495): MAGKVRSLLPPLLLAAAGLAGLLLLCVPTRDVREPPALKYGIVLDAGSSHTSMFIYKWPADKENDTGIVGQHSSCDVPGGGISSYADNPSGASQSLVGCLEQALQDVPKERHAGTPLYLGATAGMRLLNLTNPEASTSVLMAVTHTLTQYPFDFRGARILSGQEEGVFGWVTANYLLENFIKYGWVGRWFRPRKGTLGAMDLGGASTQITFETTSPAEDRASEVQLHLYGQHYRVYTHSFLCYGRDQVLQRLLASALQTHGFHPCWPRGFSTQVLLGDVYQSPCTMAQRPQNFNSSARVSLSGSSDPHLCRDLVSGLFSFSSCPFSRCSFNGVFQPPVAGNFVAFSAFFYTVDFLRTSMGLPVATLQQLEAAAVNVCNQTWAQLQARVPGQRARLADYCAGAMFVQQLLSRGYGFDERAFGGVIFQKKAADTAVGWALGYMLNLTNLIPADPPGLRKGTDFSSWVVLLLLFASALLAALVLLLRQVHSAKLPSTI
Briefly: Malachite green assay, human NTPDase2. The note with it: 100 µM ATP, COS-7 membrane preparation; for inhibition at 2 µM: read-out: % inhibition at 2 μM concentration, NTPDase2. Here is the method:
as §1, §2

Where [5] appears, read: 2 μM compound, 100 µM ATP, COS-7 membrane preparation.

On to `Nc1c(S(=O)(=O)O)cc(Nc2ccc(Nc3nc(Cl)nc(Nc4cccc(S(=O)(=O)O)c4)n3)c(S(=O)(=O)O)c2)c2c1C(=O)c1ccccc1C2=O` [Compound 5, reactive blue-2, reference compound], for which the IC50 in assay [1] was 0.942 ± 0.024 µM. In addition, the “inhibitory activity at NTPDase8 (in words)” value in assay [2] was “inactive”. In assay [2] (setting [5]), the “% inhibition at 2 μM concentration, NTPDase8” value is “(-8) %”. Moreover, in assay [3], the “% inhibition at 2 μM concentration, NTPDase1” value was “(17) %”. In addition, the “% inhibition at 2 μM concentration, NTPDase2” value in assay [4] (2 μM compound) is “(42) %”.
On to `Nc1c(S(=O)(=O)O)cc(NCc2ccccc2)c2c1C(=O)c1ccccc1C2=O` [Compound 12], for which the inhibition at 2 µM in assay [1] is 6%; in assay [2] (setting [5]), 3%; in assay [3] it was -10%; in assay [4] (2 μM compound), 11%.
With `Nc1c(S(=O)(=O)O)cc(NCCc2ccccc2)c2c1C(=O)c1ccccc1C2=O` [Compound 13], the inhibition at 2 µM in assay [1] is -3%; in assay [2] (setting [5]) it was -3%; in assay [3] it was -12%; in assay [4] (2 μM compound), 12%.
On to `Nc1c(S(=O)(=O)O)cc(Nc2ccccc2)c2c1C(=O)c1ccccc1C2=O` [Compound 14], for which the inhibition at 2 µM in assay [1] is -10%; in assay [2] (setting [5]) it was -15%; in assay [3] it was -13%; in assay [4] (2 μM compound) it was 15%.
With `Cc1ccc2ccccc2c1Nc1cc(S(=O)(=O)O)c(N)c2c1C(=O)c1ccccc1C2=O` [Compound 16], the inhibition at 2 µM in assay [1] is -21%; in assay [2] (setting [5]), 3%; in assay [3] it was 3%. The IC50 in assay [4] (read-out: IC50 ± SEM, NTPDase2) was found to be 5.62 ± 0.72 µM.
Regarding `Nc1c(S(=O)(=O)O)cc(Nc2cccc3cccc(S(=O)(=O)O)c23)c2c1C(=O)c1ccccc1C2=O` [Compound 17], the IC50 in assay [1] worked out at 1.64 ± 0.26 µM. The inhibition at 2 µM in assay [2] (setting [5]) is -11%; in assay [3], -1%; in assay [4] (2 μM compound), 15%.
Take `Nc1c(S(=O)(=O)O)cc(Nc2ccc3cc(C(=O)O)ccc3c2)c2c1C(=O)c1ccccc1C2=O` [Compound 19]: the IC50 in assay [1] is 4.72 ± 0.4 µM. Moreover, the inhibition at 2 µM in assay [2] (setting [5]) was -35%; in assay [3] it was 0%; in assay [4] (2 μM compound) it was 13%.
For `Nc1c(S(=O)(=O)O)cc(Nc2cccc(F)c2)c2c1C(=O)c1ccccc1C2=O` [Compound 21], the inhibition at 2 µM in assay [1] was 0%; in assay [2] (setting [5]), -1%; in assay [3], -8%; in assay [4] (2 μM compound), 15%.
With `Nc1c(S(=O)(=O)O)cc(Nc2cccc(Br)c2)c2c1C(=O)c1ccccc1C2=O` [Compound 22], the IC50 in assay [1] came out at 8.96 ± 1.08 µM. For the same compound, the inhibition at 2 µM in assay [2] (setting [5]) is -26%; in assay [3], -4%; in assay [4] (2 μM compound) it was 12%.
On to `Nc1c(S(=O)(=O)O)cc(Nc2cccc([N+](=O)[O-])c2)c2c1C(=O)c1ccccc1C2=O` [Compound 24], for which the IC50 in assay [1] was determined as 15.3 ± 2.5 µM. The inhibition at 2 µM in assay [2] (setting [5]) is 3%; in assay [3], -32%; in assay [4] (2 μM compound), 19%.
`Nc1ccc(Nc2cc(S(=O)(=O)O)c(N)c3c2C(=O)c2ccccc2C3=O)cc1` [Compound 25]: the inhibition at 2 µM in assay [1] was -25%; in assay [2] (setting [5]) it was -12%; in assay [3] it was -19%; in assay [4] (2 μM compound) it was 17%.
Regarding `Nc1c(S(=O)(=O)O)cc(Nc2cccc(C(=O)O)c2)c2c1C(=O)c1ccccc1C2=O` [Compound 26], the IC50 in assay [1] stood at 3.1 ± 0.45 µM. Besides, the figures for the inhibition at 2 µM in assay [2] (setting [5]), in assay [3] and in assay [4] (2 μM compound) were -17%, -17% and 2%, respectively.
For the compound `Nc1cc(Nc2cc(S(=O)(=O)O)c(N)c3c2C(=O)c2ccccc2C3=O)ccc1S(=O)(=O)O` [Compound 31], the IC50 in assay [1] is 4.26 ± 0.54 µM. The inhibition at 2 µM in assay [2] (setting [5]) was -19%; in assay [3] it was -15%; in assay [4] (2 μM compound) it was 1%.
Turning to `Nc1ccc(Nc2cc(S(=O)(=O)O)c(N)c3c2C(=O)c2ccccc2C3=O)cc1S(=O)(=O)O` [Compound 32], the concentration for half-maximal inhibition (IC50) in assay [1] is 1.73 ± 0.55 µM. Besides, the inhibition at 2 µM in assay [2] (setting [5]) was -20%; in assay [3], 10%; in assay [4] (2 μM compound), 5%.

In general, IC50 refers to the point on the concentration scale where inhibition reaches its midpoint.

These data come from paper PMC7481482, “Development of Anthraquinone Derivatives as Ectonucleoside Triphosphate Diphosphohydrolase (NTPDase) Inhibitors With Selectivity for NTPDase2 and NTPDase3” (Frontiers in Pharmacology, 2020).
